Reference: US20110046228A1 (priority 2009, published 2011)
Several values for one entry are separate records, joined by “and”; a condition that tells them apart may be missing. Equal values may be shown once. Read-outs that look alike come from different tables or passages of the source.

Columns and labels:
clinical = details: both, human, plasma, oral, 0.6 mg; for AUC(0-t): AUC0-t; for AUC(0-inf): AUC0-∞; for CL/F: Weight-Adjusted CL/F
Description: This study is an open-label, non-randomized, single-center, one-sequence, two-period drug interaction study conducted in healthy male and female volunteers. Twenty-four (24) non-smoking, non-obese adult volunteers will be enrolled. All subjects will be dosed and studied as a single cohort, with each subject receiving the same treatment in a non-randomized fashion. As described below, a single dose of colchicine, 0.6 mg, will be administered alone on Day 1, and then co-administered with the grapefruit juice on Day 18. Grapefruit juice will be administered for 4 consecutive days (1×240 mL twice daily Days 15-17 and Day 18 (PM) alone and co-administered with a single 0.6 mg colchicine tablet in the morning on Day 18 (AM) (1×240 mL) beginning on the morning of Day 15, with the last 240 mL grapefruit juice dose administered in the evening of Day 18. A 14-day washout period will be completed after the first colchicine dose on Day 1 and prior to the administration of the first grapefruit juice dose on Day 15.
Grapefruit juice ([…] ® brand) will be purchased and stored according to the labeled instructions. Subjects in the study will consume 240 mL (8 fluid ounces) of juice every 12 hours for 8 doses (4 day regimen) to ensure the maximum inhibitory effect.
Following a screening period of up to 28 days, 24 healthy male and female volunteers will be enrolled. Subjects will be confined to the study unit for approximately 1.5 days on two separate occasions starting at least 10 hours prior to dosing on the evening of Day 1 and Day 17 until 24 hours following study drug administration on Day 1 and Day 18. In addition to confinement, study subjects will return to the clinical study site for the collection of blood samples 36, 48, 72, and 96 hours post dosing during both colchicine pharmacokinetic sampling periods. Total study participation, exclusive of up to 28 days of screening, will be approximately 22 days, during which subjects will be confined on two occasions for a total confinement of approximately 3 days.
All subjects will receive a single 0.6 mg dose of colchicine on Day 1, followed by a 14-day washout period in which subjects will not be confined at study site. At discharge on Day 2 (at approximately 8 AM), study subjects will be instructed to return to the clinical site on Days 15 through 17 in the mornings and evenings to consume (1×240 mL, i.e., 8 fluid ounces) grapefruit juice twice daily on Days 15 through 17 in a ‘directly-observed’ fashion. On the evening of Day 17, study participants will return to the clinic for their final study confinement period. In the morning of Day 18, study subjects will receive a single 0.6 mg colchicine dose with a 240 mL serving of grapefruit juice. In the evening of Day 18, study subjects will receive their final 240 mL serving of grapefruit juice administered alone.
A minimum fasting period of 10 hours (overnight fast) will be in effect before administration of colchicine on Day 1 and prior to the administration of colchicine and grapefruit juice on Day 18. Fasting will continue for 4 hours post-dosing on Days 1 and 18 after the morning administration. Grapefruit juice doses administered on Days 15-17 and Day 18 (PM) will not be in a fasted state. For colchicine, medication must be swallowed whole, not chewed. For grapefruit juice, the entire serving must be consumed. For all treatments, the subjects will not be permitted to lie down for the first 4 hours following administration of drug to ensure proper stomach emptying. On both of the confined study days after the morning administrations (Day 1 and Day 18), water will be allowed ad libitum beginning 2 hours post-dose. Intake of all study medications will be supervised. Standardized meals will be served according to a pre-determined schedule throughout the study.
Serial blood samples will be collected by individual venipuncture up to 96 hours following drug administration on Day 1 and Day 18.

[1] = test system: individuals with Behcet's syndrome (or disease); details: adjusted to bodyweight, cited from earlier work
[2] = parameters: AUC0-t, Geometric Mean: unit not given beside the values
[3] = with a single glass (200-250 mL) of grapefruit juice; cited from earlier work
[4] = Least Squares Mean, Non-Transformed Data, single 0.6 mg colchicine dose
[5] = Mean, mean of N = 21, single 0.6 mg colchicine
[6] = Median, median of N = 21, single 0.6 mg colchicine
[7] = Geometric Mean, single 0.6 mg colchicine dose, N = 21, based on least squares means of ln-transformed values
[8] = individual subjects, single 0.6 mg colchicine, plasma, A Day 1, A + B Day 18
[9] = maximum of N = 21, single 0.6 mg colchicine, plasma
[10] = mean of N = 21, single 0.6 mg colchicine, plasma
[11] = median of N = 21, single 0.6 mg colchicine, plasma
[12] = minimum of N = 21, single 0.6 mg colchicine, plasma
[13] = single 0.6 mg colchicine dose, plasma

Question: Which AUC(0-t) (clinical; [4]) does the source give for COc1cc2c(c(OC)c1OC)-c1ccc(OC)c(=O)cc1[C@@H](NC(C)=O)CC2 [Treatment A, (−)-N-[(7S, 12aS)-1,2,3,10-tetramethoxy-9-oxo-5,6,7,9-tetrahydrobenzo[a]heptalen-7-yl]-acetamide] here?
Answer: 9.33 ng·h/mL

Question: What about the AUC(0-t) (clinical; [5]) of the same molecule?
Answer: 9.33 ng·h/mL

Question: What about the AUC(0-t) (clinical; [6]) of the same molecule?
Answer: 8.84 ng·h/mL

Question: What about the AUC(0-inf) (clinical; [7]) of the same molecule?
Answer: 10.5 ng·h/mL

Question: What about the AUC(0-inf) (clinical; [4]) of the same molecule?
Answer: 11.1 ng·h/mL

Question: And the AUC(0-inf) (clinical; [5])?
Answer: 11.1 ng·h/mL

Question: And the AUC(0-inf) (clinical; [6])?
Answer: 10.4 ng·h/mL

Question: What about the Cmax (clinical; [7]) of the same molecule?
Answer: 2.07 ng/mL

Question: And the Cmax (clinical; [4])?
Answer: 2.17 ng/mL

Question: And the Cmax (clinical; [5])?
Answer: 2.17 ng/mL

Question: And the Cmax (clinical; [6])?
Answer: 2.06 ng/mL

Question: And the Tmax (clinical; [4])?
Answer: 1.24 h

Question: What about the Tmax (clinical; [5]) of the same molecule?
Answer: 1.24 h

Question: And the Tmax (clinical; [6])?
Answer: 1 h

Question: And the CL/F (clinical; [4])?
Answer: 12.3 mL/min/kg

Question: What about the CL/F (clinical; [5]) of the same molecule?
Answer: 12.3 mL/min/kg

Question: What about the CL/F (clinical; [6]) of the same molecule?
Answer: 11.3 mL/min/kg

Question: What about the half-life (clinical; t1/2, Least Squares Mean, Non-Transformed Data, single 0.6 mg colchicine dose) of the same molecule?
Answer: 4.64 h

Question: What about the half-life (clinical; t1/2, Mean, mean of N = 21, single 0.6 mg colchicine) of the same molecule?
Answer: 4.64 h

Question: And the “Clinical effect in Behcet's disease” value ([1]; 1-2 mg daily)?
Answer: reduced the frequency of genital ulcers, erythema nodosum, and arthritis among women and reduced the occurrence of arthritis among men

Question: And the “Clinical effect in Behcet's syndrome” value ([1]; 1-2.4 mg daily)?
Answer: reduced the frequency of genital ulcers, erythema nodosum, and arthritis among women and reduced the occurrence of arthritis among men

Question: What about the “AUC0-∞” value [2, 8] of the same molecule?
Answer: 10.8336 ng·h/mL and 14.15474 ng·h/mL and 9.5485 ng·h/mL and 13.07636 ng·h/mL and 20.67702 ng·h/mL and 9.19604 ng·h/mL and 7.56206 ng·h/mL and 10.95321 ng·h/mL and 12.50531 ng·h/mL and 8.2513 ng·h/mL and 7.55929 ng·h/mL and 21.66786 ng·h/mL and 8.57677 ng·h/mL and 10.79516 ng·h/mL and 4.54846 ng·h/mL and 9.55313 ng·h/mL

Question: What about the CL/F [2, 8] of the same molecule?
Answer: 55.38 L/h and 42.39 L/h and 62.84 L/h and 57.10 L/h and 45.88 L/h and 29.02 L/h and 65.25 L/h and 79.34 L/h and 54.78 L/h and 57.58 L/h and 51.63 L/h and 57.64 L/h and 47.98 L/h and 72.72 L/h and 79.37 L/h and 27.69 L/h and 58.47 L/h and 69.96 L/h and 55.58 L/h and 131.91 L/h and 62.81 L/h

Question: What about the Kel [2, 8] of the same molecule?
Answer: 0.1619 h⁻¹ and 0.2194 h⁻¹ and 0.1653 h⁻¹ and 0.1160 h⁻¹ and 0.1881 h⁻¹ and 0.0484 h⁻¹ and 0.2291 h⁻¹ and 0.1859 h⁻¹ and 0.1655 h⁻¹ and 0.1563 h⁻¹ and 0.1843 h⁻¹ and 0.1946 h⁻¹ and 0.1506 h⁻¹ and 0.1355 h⁻¹ and 0.2178 h⁻¹ and 0.0847 h⁻¹ and 0.1512 h⁻¹ and 0.1866 h⁻¹ and 0.1851 h⁻¹ and 0.2814 h⁻¹ and 0.1925 h⁻¹

Question: And the Tmax [2, 8]?
Answer: 1.00 h and 2.00 h

Question: And the Varea/F [2, 8]?
Answer: 342.07 L and 193.19 L and 380.20 L and 492.22 L and 243.91 L and 599.39 L and 284.79 L and 426.86 L and 331.07 L and 368.37 L and 280.11 L and 296.22 L and 318.56 L and 536.77 L and 364.36 L and 327.00 L and 386.70 L and 374.82 L and 300.24 L and 468.69 L and 326.22 L

Question: What about the t1/2 [2, 8] of the same molecule?
Answer: 4.28 h and 3.16 h and 4.19 h and 5.98 h and 3.68 h and 14.32 h and 3.03 h and 3.73 h and 4.43 h and 3.76 h and 3.56 h and 4.60 h and 5.12 h and 3.18 h and 8.19 h and 4.58 h and 3.71 h and 3.74 h and 2.46 h and 3.60 h

Question: What about the “AUC0-t, Max” value [2, 9] of the same molecule?
Answer: 18.3968 ng·h/mL

Question: What about the “AUC0-∞, Max” value [2, 9] of the same molecule?
Answer: 21.66786 ng·h/mL

Question: What about the “CL/F, Max” value [2, 9] of the same molecule?
Answer: 131.91 L/h

Question: And the “Cmax, Max” value [2, 9]?
Answer: 3.758 ng/mL

Question: What about the “Kel, Max” value [2, 9] of the same molecule?
Answer: 0.2814 h⁻¹

Question: And the “Tmax, Max” value [2, 9]?
Answer: 2.00 h

Question: And the “Varea/F, Max” value [2, 9]?
Answer: 599.39 L

Question: What about the “t1/2, Max” value [2, 9] of the same molecule?
Answer: 14.32 h

Question: And the “CL/F, Mean” value [2, 10]?
Answer: 60.25 L/h

Question: And the “Kel, Mean” value [2, 10]?
Answer: 0.1714 h⁻¹

Question: And the “Varea/F, Mean” value [2, 10]?
Answer: 363.89 L

Question: What about the “CL/F, Median” value [2, 11] of the same molecule?
Answer: 57.58 L/h

Question: And the “Kel, Median” value [2, 11]?
Answer: 0.1843 h⁻¹

Question: And the “Varea/F, Median” value [2, 11]?
Answer: 342.07 L

Question: And the “t1/2, Median” value [2, 11]?
Answer: 3.76 h

Question: And the “AUC0-t, Min” value [2, 12]?
Answer: 3.83287 ng·h/mL

Question: And the “AUC0-∞, Min” value [2, 12]?
Answer: 4.54846 ng·h/mL

Question: What about the “CL/F, Min” value [2, 12] of the same molecule?
Answer: 27.69 L/h

Question: What about the “Cmax, Min” value [2, 12] of the same molecule?
Answer: 0.8452 ng/mL

Question: And the “Kel, Min” value [2, 12]?
Answer: 0.0484 h⁻¹

Question: What about the “Tmax, Min” value [2, 12] of the same molecule?
Answer: 1.00 h

Question: And the “Varea/F, Min” value [2, 12]?
Answer: 193.19 L

Question: And the “t1/2, Min” value [2, 12]?
Answer: 2.46 h

Question: What about the “Bioequivalence of oral colchicine with grapefruit juice vs in the absence of grapefruit juice” value ([2]; recommended maximum daily amount of grapefruit juice (about 16 fluid ounces daily)) of the same molecule?
Answer: bioequivalent

Question: What about the “Kel, Least Squares Mean, Non-Transformed Data” value [2, 13] of the same molecule?
Answer: 0.1714

Question: And the “Varea/F, Least Squares Mean, Non-Transformed Data” value [2, 13]?
Answer: 363.89

Question: What about the “AUC0-t, Geometric Mean” value ([2]; single 0.6 mg colchicine dose, plasma, N = 21, based on least squares means of ln-transformed values) of the same molecule?
Answer: 8806.78

Question: With CCOC(=O)C1=C(C)NC(C)=C(C(=O)OC)C1c1cccc(Cl)c1Cl (stereo not shown) [felodipine] as the molecule, how does the “Change in AUC and Cmax of orally administered felodipine” value [3] read?
Answer: several-fold increase
